Like-named read-outs stand apart in the source and are kept apart here.
Key:
parkinson's disease [1] = test: Speed of response (transit time between two switches), patient of Clinical Test 6; format: in vivo, human; settings: Clinical Test 6 patient
Protocol: The abscissa axis represents time (hour) after administration, and the ordinate axis means transit time (msec). The filled squares represent the transit time after DL-threo-DOPS intake and the open squares on the right side represent the transit time 2 hours after administation of L-DOPA, benserazid hydrochloride and trihexyphenidyl hydrochloride.
In order to quantitatively analyze the improvement of the syndromes in the above clinical tests, a speed of response was measured as to some patients in the tests.
Method for the measurement: The transit time was measured by using two switches (distance: 15 cm) in the same manner as described in Masao Kato and Kazuya Ando, "Parkinson's Disease, Physiopathology and Therapy", page 106, issued by Kanehara Shuppan on Mar. 31, 1978.
Results: The data of the patient in the above Clinical Test 6 are shown in the attached FIG. 1. As is shown in the figure, when it was measured before administration of DL-threo-DOPS (600 mg) and carbidopa (60 mg) and 1, 3, 4, 6 and 8 hours after the administration, the effect peaked at 4 hours after administration, and at the same time, the transit time was shortened about 170 msec as compared to that before administration of the drugs.

narcolepsy = settings: six patients, 200 mg intravenous; cited from earlier work
parkinson's disease [2] = test: Surface electromyogram, patient of Clinical Test 6; format: in vivo, human; settings: DL-threo-DOPS 600 mg and carbidopa 60 mg, vs before administration
Protocol: FIGS. 2, 3 and 4 each show surface electromyograms after DL-threo-DOPS and carbidopa were administered in comparison with the surface electromygrams before administration of the drugs. The data of FIG. 2 relate to a tremor of the right upper arm at static state. The data of FIG. 3 relate to tonic stretch reflexes of the extensor muscle of right forearm. The data of FIG. 4 indicate improvement of the skillfulness when flexion and extension movement at the right wrist joint was tried. […] E in FIG. 3 represents the period of passive stretching.
As to the patient in the above Clinical Test 6, the effect of administration of DL-threo-DOPS (600 mg) and carbidopa (60 mg) was measured by surface electromyogram, which was compared with that measured before the administration of drugs.

parkinson's disease [3] = settings: human, 300 mg intravenous; cited from earlier work
decarboxylase = settings: DL-threo-DOPS vs DL-erythro-DOPS; printed as "1/10 smaller"; cited from earlier work
[4] = system: parkinson's disease, freezing phenomenon; test: Clinical tests 1 to 7: treatment of parkinsonian patients with DL-threo-DOPS and a decarboxylase inhibitor; format: in vivo, human
Protocol: The patient was a person suffering from parkinson's disease, having a disease history of 12 years after being affected by the disease. The primary clinical features were moderate rigidity of the four limbs and trunk were slight tremor. At about 6 years after the start of the disease, L-DOPA therapy was started.
[…] The patient also had difficulty in writing.
This patient was then treated with DL-threo-DOPS in the following dosage, while keeping the administration of L-DOPA, the decarboxylase inhibitor (benserazide hydrochloride) and trihexyphenidyl hydrochloride at strictly the same dosage throughout the period of trial.
DL-threo-DOPS was orally administered to the patient in the form of a capsule (DL-DOPS content: 200 mg) as follows:
First to 2nd day 6 capsules per day
3rd to 4th day 9 capsules per day
5th to 6th day 12 capsules per day
It is noted that the decarboxylase inhibitor was not newly administered, because it was already administered together with L-DOPA.
The patient was a person suffering from parkinson's disease, whose main syndrome was "pure akinesia" which was first described by one of the present inventors [Narabayashi et al, Advances in Parkinsonism (eds., W. Birkmayer and O. Hornykiewicz) Roche Basle, pages 335-342 (1976)].
But on the other hand, motion such as going up or down the stairs could be done rather normally. Accordingly, such a syndrome is also called paradoxical kinesia.
The patient was treated with DL-threo-DOPS and a decarboxylase inhibitor (carbidopa) in the same dosage as in the above Clinical Test 1.
In the same manner, other patients as shown in Table 1 were treated with threo-DOPS and a decarboxylase inhibitor. The results are shown in Table 1 together with the data in the above Clinical Tests 1 and 2.

[5] = system: L-aromatic amino acid decarboxylase; settings: cited from earlier work; for enzymatic decarboxylation of the stereoisomers: L- and D-, threo- and erythro-isomers; for nature of the norepinephrine formed: product of decarboxylation
brain norepinephrine = settings: rats, cited from earlier work
heart norepinephrine = settings: rats, combination with decarboxylase inhibitor; cited from earlier work
[6] = acute toxicity (LD50) in mice; settings: mouse, in vivo
[7] = Side effects in the clinical tests; format: in vivo, human
[8] = Clinical Test 1, 3rd day, with L-DOPA, benserazide, trihexyphenidyl
[9] = Clinical Test 1, 5th day, with L-DOPA, benserazide, trihexyphenidyl

In the case of `N[C@H](C(=O)O)[C@H](O)c1ccc(O)c(O)c1` (relative stereo) [DL-threo-DOPS], the “shortening of transit time compared to before administration” value (parkinson's disease [1]; 4 hours after DL-threo-DOPS 600 mg and carbidopa 60 mg) is reported as “about 170 msec”, the “time of peak effect on transit time after administration” value (parkinson's disease [1]; DL-threo-DOPS 600 mg and carbidopa 60 mg) is reported as 4 h and the “transit time compared with L-DOPA combination” value (parkinson's disease [1]; vs 2 hours after L-DOPA 100 mg, benserazide 25 mg, trihexyphenidyl hydrochloride 2 mg) is reported as “shorter than the transit time measured at 2 hours after administration of L-DOPA”. For the same compound, the effect on narcolepsy (narcolepsy) was “ineffective”, the “tremor of the right upper arm at the static state” value (parkinson's disease [2]; FIG. 2) was “remarkably decreased or improved” and the “rigidity (stiffness) of the extensor muscle of the right forearm” value (parkinson's disease [2]; FIG. 3) was “remarkably decreased and improved”. The “tonic stretch reflex of the extensor muscle of the right forearm” value (parkinson's disease [2]; FIG. 3) was “reduced”, the “skillfulness, flexion and extension movement at the right wrist joint” value (parkinson's disease [2]; FIG. 4) was “remarkably improved” and the “effect on parkinson's disease” value (parkinson's disease [3]) was “ineffective”. For the same compound, the “rate of decarboxylation relative to DL-erythro-DOPS” value (decarboxylase) was 1/10, the behavior and expression [4, 8] was “more active behavior and expression” and the difficulty in writing [4, 8] was “the difficulty in writing had disappeared”. For the same compound, the speaking [4, 8] was “speaking more clearly than before”, the walking [4, 8] was “much easier” and the “falling down during walking” value [4, 9] was “no falling down during walking within rooms and passageways”. For the same compound, the walking [4, 9] was “could walk smoothly without any assistance and the steps of the walk became almost normal with wide steps”, the “improvement of the syndrome on maintenance” value ([4]; Clinical Test 1, reduced dose of 9 capsules per day) was “the improvement of the syndrome is still continuing” and the “walking and freezing in walking” value ([4]; Clinical Test 2, DL-threo-DOPS 1,800 mg and carbidopa 90 mg) was “the walking was improved and the freezing in walking disappeared”. For the same compound, the walking ([4]; Clinical Test 2, several days after reaching DL-threo-DOPS 1,800 mg and carbidopa 90 mg) was “the walking became almost normal”.
In the case of `N[C@H](C(=O)O)[C@H](O)c1ccc(O)c(O)c1` [L-threo-DOPS], the “enzymatic decarboxylation of the stereoisomers” value [5] is listed as “can be decarboxylated”, the “nature of the norepinephrine formed” value [5] is listed as “confirmed as natural l-norepinephrine” and the “DOPS-induced rise of norepinephrine in the brain” value (brain norepinephrine; combination with decarboxylase inhibitor) is listed as “did not enhance”. For the same compound, the “accumulation of norepinephrine in the brain” value (brain norepinephrine; injection into a cerebral ventricle) was “remarkable”, the “accumulation of norepinephrine in the brain” value (brain norepinephrine; intraperitoneal administration) was “negligible” and the “penetration through B.B.B.” value (brain norepinephrine) was “poor penetration”. The “DOPS-induced rise of norepinephrine in the heart” value (heart norepinephrine) was “abolished”.
For `NC(C(=O)O)C(O)c1ccc(O)c(O)c1` (centres unmarked) [DOPS], the decarboxylation to norepinephrine ([5]; in vivo and in vitro) is given as “can be decarboxylated”.
For `N[C@H](C(=O)O)[C@@H](O)c1ccc(O)c(O)c1` [L-erythro-DOPS, reference compound], the “enzymatic decarboxylation of the stereoisomers” value [5] is given as “can be decarboxylated” and the “nature of the norepinephrine formed” value [5] is given as “not natural”.
In the case of `N[C@H](C(=O)O)[C@H](O)c1ccc(O)c(O)c1` (relative stereo) [threo-DOPS, threo-3,4-dihydroxyphenylserine], the LD50 ([6]; ip) is reported as about 10000 mg/kg, the LD50 ([6]; po) is reported as over 10000 mg/kg and the serious side effects [7] is reported as “serious side effects were not observed”.
With `N[C@@H](Cc1ccc(O)c(O)c1)C(=O)O` [L-DOPA, L-3,4-dihydroxyphenylalanine, reference compound] the stiffness and tremor ([4]; Clinical Test 1 patient, earlier L-DOPA 400 mg, benserazide 100 mg, trihexyphenidyl 6 mg daily, oral) was “the stiffness and tremor were improved”, the stiffness and tremor ([4]; Clinical Test 1 patient, earlier L-DOPA therapy) was “improved the stiffness and tremor remarkably” and the freezing ([4]; Clinical Test 1 patient, increased amount of L-DOPA) was “it became worse”.
